A word on the IC50: it is the concentration that inhibits the measured activity by half.

Chain of human Nav 1.8 (Q9Y5Y9 126-399 limits assumed): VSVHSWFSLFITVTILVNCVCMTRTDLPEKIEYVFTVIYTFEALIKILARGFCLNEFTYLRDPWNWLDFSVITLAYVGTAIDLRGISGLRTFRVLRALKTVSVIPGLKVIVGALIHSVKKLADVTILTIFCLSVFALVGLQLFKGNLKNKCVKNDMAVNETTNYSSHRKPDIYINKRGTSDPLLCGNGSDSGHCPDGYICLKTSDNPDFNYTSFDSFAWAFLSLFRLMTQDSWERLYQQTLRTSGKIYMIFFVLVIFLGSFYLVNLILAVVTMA
Chain of human Nav 1.8 (Q9Y5Y9 660-890 limits assumed): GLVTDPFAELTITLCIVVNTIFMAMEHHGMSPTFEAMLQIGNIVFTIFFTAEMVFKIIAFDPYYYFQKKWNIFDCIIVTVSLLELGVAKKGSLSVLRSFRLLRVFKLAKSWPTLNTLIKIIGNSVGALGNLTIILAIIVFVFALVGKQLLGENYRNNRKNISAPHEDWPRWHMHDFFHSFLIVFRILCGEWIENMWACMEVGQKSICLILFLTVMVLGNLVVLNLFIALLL
Chain of human Nav 1.8 (Q9Y5Y9 1148-1722 limits assumed): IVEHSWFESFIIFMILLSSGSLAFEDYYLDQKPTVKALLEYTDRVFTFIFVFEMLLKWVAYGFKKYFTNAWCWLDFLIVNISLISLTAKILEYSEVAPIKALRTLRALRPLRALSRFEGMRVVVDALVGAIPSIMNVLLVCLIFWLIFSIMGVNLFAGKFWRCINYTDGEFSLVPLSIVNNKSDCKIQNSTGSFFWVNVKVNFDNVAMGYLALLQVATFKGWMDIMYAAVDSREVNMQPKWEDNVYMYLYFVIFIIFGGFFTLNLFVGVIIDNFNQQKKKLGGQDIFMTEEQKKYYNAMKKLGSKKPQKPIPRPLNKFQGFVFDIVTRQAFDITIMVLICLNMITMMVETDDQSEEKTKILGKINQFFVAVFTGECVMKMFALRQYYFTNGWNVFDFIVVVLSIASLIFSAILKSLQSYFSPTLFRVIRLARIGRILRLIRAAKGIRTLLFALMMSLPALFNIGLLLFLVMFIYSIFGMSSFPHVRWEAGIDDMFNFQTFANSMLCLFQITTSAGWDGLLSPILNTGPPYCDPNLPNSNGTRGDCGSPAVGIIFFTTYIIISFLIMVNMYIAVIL

For this assay, the target named is human Nav 1.8 (Homo sapiens, UniProt Q9Y5Y9). As to the kind of experiment: E-VIPR assay detecting and measuring Nav inhibition properties. Format: cell-based. The conditions noted are these: HEK cells expressing a truncated form of human Nav 1.8; compound numbers without "*" (not marked as run in the presence of human serum); read-out: measured IC50 value in the E-VIPR Assay. The method in brief:
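Nav inhibition was read by E-VIPR: cells were electrically stimulated while coumarin/oxonol FRET emissions were recorded. Cells were HEK expressing a truncated human Nav 1.8 and co-transduced with KIR2.1, and were assayed in 25% final human serum.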
On to `C[C@H]1[C@@H](c2ccc(F)c(F)c2OCC#N)[C@H](C(=O)Nc2ccnc(C(N)=O)c2)O[C@@]1(C)C(F)(F)F` [Compound 69, 4-((2R,3S,4S,5R)-3-(2-(cyanomethoxy)-3,4-difluorophenyl)-4,5-dimethyl-5-(trifluoromethyl)tetrahydrofuran-2-carboxamido)picolinamide], for which the IC50 was less than 10 nM.
On to `CNC(=O)c1cc(NC(=O)[C@@H]2O[C@@](C)(C(F)(F)F)[C@@H](C)[C@H]2c2ccc(F)c(F)c2OC[C@@H](C)N2CC3(COC3)C2)ccn1` [Compound 41, 4-((2R,3S,4S,5R)-3-(2-((R)-2-(2-oxa-6-azaspiro[3.3]heptan-6-yl)propoxy)-3,4-difluorophenyl)-4,5-dimethyl-5-(trifluoromethyl)tetrahydrofuran-2-carboxamido)-N-methylpicolinamide], for which the IC50 fell in the range of 100 to 1000 nM.
Consider `C[C@H](Oc1c([C@H]2[C@H](C(=O)Nc3ccnc(C(N)=O)c3)O[C@@](C)(C(F)(F)F)[C@H]2C)ccc(F)c1F)C1COC1` [Compound 158, 4-((2R,3S,4S,5R)-3-(3,4-difluoro-2-((S)-1-(oxetan-3-yl)ethoxy)phenyl)-4,5-dimethyl-5-(trifluoromethyl)tetrahydrofuran-2-carboxamido)picolinamide], for which the IC50 is less than 10 nM.
For the molecule `CCO[C@H]1CNC[C@@H]1NC(=O)c1cc(NC(=O)[C@@H]2O[C@@](C)(C(F)(F)F)[C@@H](C)[C@H]2c2ccc(F)c(F)c2OC)ccn1` [Compound 253, 4-((2R,3S,4S,5R)-3-(3,4-difluoro-2-methoxyphenyl)-4,5-dimethyl-5-(trifluoromethyl)tetrahydrofuran-2-carboxamido)-N-((3S,4S)-4-ethoxypyrrolidin-3-yl)picolinamide], the IC50 lay in the range of 10 to 100 nM.
In the case of `C[C@H]1[C@@H](c2ccc(F)c(F)c2OCCN2CC3CC(C2)O3)[C@H](C(=O)Nc2ccnc(C(N)=O)c2)O[C@@]1(C)C(F)(F)F` [Compound 110, 4-((2R,3S,4S,5R)-3-(2-(2-(6-oxa-3-azabicyclo[3.1.1]heptan-3-yl)ethoxy)-3,4-difluorophenyl)-4,5-dimethyl-5-(trifluoromethyl)tetrahydrofuran-2-carboxamido)picolinamide], the IC50 is less than 10 nM.
For `C[C@H]1CN(CCOc2c([C@H]3[C@H](C(=O)Nc4ccnc(C(N)=O)c4)O[C@@](C)(C(F)(F)F)[C@H]3C)ccc(F)c2F)CCO1` [Compound 111, 4-((2R,3S,4S,5R)-3-(3,4-difluoro-2-(2-((S)-2-methylmorpholino)ethoxy)phenyl)-4,5-dimethyl-5-(trifluoromethyl)tetrahydrofuran-2-carboxamido)picolinamide], the IC50 is less than 10 nM.
As to `COc1c([C@H]2[C@H](C(=O)Nc3cc(C(=O)N4CCNCC4)ncc3F)O[C@@](C)(C(F)(F)F)[C@H]2C)ccc(F)c1F` [Compound 16, (2R,3S,4S,5R)-3-(3,4-difluoro-2-methoxy-phenyl)-N-[5-fluoro-2-(piperazine-1-carbonyl)-4-pyridyl]-4,5-dimethyl-5-(trifluoromethyl)tetrahydrofuran-2-carboxamide], the concentration for half-maximal inhibition (IC50) was 10 to 100 nM.
On to `COc1c([C@H]2[C@H](C(=O)Nc3ccnc(C(=O)N[C@H]4CN(C)C[C@@H]4OC)c3)O[C@@](C)(C(F)(F)F)[C@H]2C)ccc(F)c1F` [Compound 281, 4-((2R,3S,4S,5R)-3-(3,4-difluoro-2-methoxyphenyl)-4,5-dimethyl-5-(trifluoromethyl)tetrahydrofuran-2-carboxamido)-N-((3S,4S)-4-methoxy-1-methylpyrrolidin-3-yl)picolinamide], for which the IC50 was 10 to 100 nM.
The value for `CO[C@H]1CCN(CCOc2c([C@H]3[C@H](C(=O)Nc4ccnc(C(N)=O)c4)O[C@@](C)(C(F)(F)F)[C@H]3C)ccc(F)c2F)C1` [Compound 129, 4-((2R,3S,4S,5R)-3-(3,4-difluoro-2-(2-((S)-3-methoxypyrrolidin-1-yl)ethoxy)phenyl)-4,5-dimethyl-5-(trifluoromethyl)tetrahydrofuran-2-carboxamido)picolinamide] was 10 to 100 nM.
With `COCCOc1c([C@@H]2[C@@H](C(=O)Nc3ccnc(C(N)=O)c3)O[C@](C)(C(F)(F)F)[C@@H]2C)ccc(F)c1F` (stereo in doubt) [Compound 1, rel-4-((2S,3R,4R,5S)-3-(3,4-difluoro-2-(2-methoxyethoxy)phenyl)-4,5-dimethyl-5-(trifluoromethyl)tetrahydrofuran-2-carboxamido) picolinamide], the IC50 was in the range of 100 to 1000 nM.
On to `CON=C(C)COc1c([C@H]2[C@H](C(=O)Nc3ccnc(C(N)=O)c3)O[C@@](C)(C(F)(F)F)[C@H]2C)ccc(F)c1F` [Compound 193, 4-((2R,3S,4S,5R)-3-(3,4-difluoro-2-(2-(methoxyimino)propoxy)phenyl)-4,5-dimethyl-5-(trifluoromethyl)tetrahydrofuran-2-carboxamido)picolinamide], for which the IC50 was less than 10 nM.
The value for `COc1c([C@H]2[C@H](C(=O)Nc3ccnc(C(=O)N4C5CNCC4C5)c3)O[C@@](C)(C(F)(F)F)[C@H]2C)ccc(F)c1F` [Compound 237, (2R,3S,4S,5R)-N-(2-(3,6-diazabicyclo[3.1.1]heptane-6-carbonyl)pyridin-4-yl)-3-(3,4-difluoro-2-methoxyphenyl)-4,5-dimethyl-5-(trifluoromethyl)tetrahydrofuran-2-carboxamide] was 10 to 100 nM; that for `COc1c([C@H]2[C@H](C(=O)Nc3ccnc(C(=O)N4C[C@@H](OC)[C@@H](N(C)C)C4)c3)O[C@@](C)(C(F)(F)F)[C@H]2C)ccc(F)c1F` [Compound 298, (2R,3S,4S,5R)-3-(3,4-difluoro-2-methoxyphenyl)-N-(2-((3S,4R)-3-(dimethylamino)-4-methoxypyrrolidine-1-carbonyl)pyridin-4-yl)-4,5-dimethyl-5-(trifluoromethyl)tetrahydrofuran-2-carboxamide] was less than 10 nM; that for `C[C@H](O)COc1c([C@H]2[C@H](C(=O)Nc3ccnc(C(N)=O)c3)O[C@@](C)(C(F)(F)F)[C@H]2C)ccc(F)c1F` [Compound 153] was less than 10 nM.
As to `C[C@H]1[C@@H](c2ccc(F)c(F)c2OCCN2CC3(CCOC3)C2)[C@H](C(=O)Nc2ccnc(C(=O)N3CC4(CCOC4)C3)c2)O[C@@]1(C)C(F)(F)F` [Compound 123, (2R,3S,4S,5R)-3-(2-(2-(6-oxa-2-azaspiro[3.4]octan-2-yl)ethoxy)-3,4-difluorophenyl)-N-(2-(6-oxa-2-azaspiro[3.4]octane-2-carbonyl)pyridin-4-yl)-4,5-dimethyl-5-(trifluoromethyl)tetrahydrofuran-2-carboxamide], the IC50 is not below 1000 nM.
Regarding `COc1c([C@H]2[C@H](C(=O)Nc3ccnc(C(=O)N4CCNC[C@H]4C)c3)O[C@@](C)(C(F)(F)F)[C@H]2C)ccc(F)c1F` [Compound 235, (2R,3S,4S,5R)-3-(3,4-difluoro-2-methoxyphenyl)-4,5-dimethyl-N-(2-((R)-2-methylpiperazine-1-carbonyl)pyridin-4-yl)-5-(trifluoromethyl)tetrahydrofuran-2-carboxamide], the IC50 was less than 10 nM.
For `COCC(CO)COc1c([C@H]2[C@H](C(=O)Nc3ccnc(C(N)=O)c3)O[C@@](C)(C(F)(F)F)[C@H]2C)ccc(F)c1F` (stereo partly drawn) [Compound 155, 4-((2R,3S,4S,5R)-3-(3,4-difluoro-2-(3-hydroxy-2-(methoxymethyl)propoxy)phenyl)-4,5-dimethyl-5-(trifluoromethyl)tetrahydrofuran-2-carboxamido) picolinamide], the IC50 is 10 to 100 nM.
Take `COc1c([C@H]2[C@H](C(=O)Nc3ccnc(C(=O)N(C)O)c3)O[C@@](C)(C(F)(F)F)[C@H]2C)ccc(F)c1F` [Compound 217, 4-((2R,3S,4S,5R)-3-(3,4-difluoro-2-methoxyphenyl)-4,5-dimethyl-5-(trifluoromethyl)tetrahydrofuran-2-carboxamido)-N-hydroxy-N-methylpicolinamide]: the IC50 was less than 10 nM.
In the case of `COc1c([C@H]2[C@H](C(=O)Nc3ccnc(C(=O)N4C[C@H](OC)[C@H](N(C)C)C4)c3)O[C@@](C)(C(F)(F)F)[C@H]2C)ccc(F)c1F` [Compound 302, (2R,3S,4S,5R)-3-(3,4-difluoro-2-methoxyphenyl)-N-(2-((3R,4S)-3-(dimethylamino)-4-methoxypyrrolidine-1-carbonyl)pyridin-4-yl)-4,5-dimethyl-5-(trifluoromethyl)tetrahydrofuran-2-carboxamide], the IC50 is less than 10 nM.
The same measure for `CO[C@H](CO)COc1c([C@H]2[C@H](C(=O)Nc3ccnc(C(N)=O)c3)O[C@@](C)(C(F)(F)F)[C@H]2C)ccc(F)c1F` (single isomer, unassigned) [Compound 160, rel-4-((2R*,3S*,4S*,5R*)-3-(3,4-difluoro-2-(3-hydroxy-2-methoxypropoxy)phenyl)-4,5-dimethyl-5-(trifluoromethyl)tetrahydrofuran-2-carboxamido)picolinamide]: less than 10 nM; for `COCC1(C)CC(c2ccc(F)c(F)c2OC)C(C(=O)Nc2ccnc(C(N)=O)c2)O1` (single isomer, unassigned) [Compound 28]: 100 to 1000 nM.
Consider `COc1c([C@H]2[C@H](C(=O)Nc3ccnc(C(=O)N(C)CCN(C)C)c3)O[C@@](C)(C(F)(F)F)[C@H]2C)ccc(F)c1F` [Compound 273, 4-((2R,3S,4S,5R)-3-(3,4-difluoro-2-methoxyphenyl)-4,5-dimethyl-5-(trifluoromethyl)tetrahydrofuran-2-carboxamido)-N-(2-(dimethylamino)ethyl)-N-methylpicolinamide], for which the IC50 was less than 10 nM.
For `C[C@H]1[C@@H](c2ccc(F)c(F)c2OCc2cnco2)[C@H](C(=O)Nc2ccnc(C(N)=O)c2)O[C@@]1(C)C(F)(F)F` [Compound 6], the IC50 was less than 10 nM.
Turning to `COc1c([C@H]2[C@H](C(=O)Nc3cc(C(=O)N4CCNCC4)ncc3C)O[C@@](C)(C(F)(F)F)[C@H]2C)ccc(F)c1F` [Compound 15, (2R,3S,4S,5R)-3-(3,4-difluoro-2-methoxy-phenyl)-4,5-dimethyl-N-[5-methyl-2-(piperazine-1-carbonyl)-4-pyridyl]-5-(trifluoromethyl)tetrahydrofuran-2-carboxamide], the IC50 is less than 10 nM.
